Key:
[1] = test system: PNA-array linker-spacer-CGN1N2TCCG-NH2; assay: Hybridization of fluorescein-labeled DNA-receptor to 16-element PNA-array on patterned porous coating (epifluorescence); type: binding; conditions: 10 μM in 6×SSPE, 10 minutes at room temperature; 10× objective, 15 seconds exposure
Method: A patterned porous coating comprising a 4×4 array of 600 μm×600 μm porous squares was prepared as described in Example 19, and coupled with amino-linker molecules using the method described in Example 20. The PNA-array was then synthesized on the surface of the patterned porous coating with each array element occupying one 600 μm×600 μm porous square. Each element of the array comprised one of the 16 possible combinations of the sequence, linker-spacer-CGN1N2TCCG-NH2, where N1 and N2 may independently be A, G, C, or T. The position of each element in the array, as referenced by the N1N2 sequence, is shown in the array schematics of FIGS. 6A and 6B. […]
The fluorescence image of the porous coating was captured at room temperature using a 35 mm camera attached to a Standard Epifluorescence Microscope. The fluorescence image of FAA bound at the predicted array element is readily detected and visualized using an objective magnification of 10× and an exposure time of 15 seconds (see FIG. 6 and corresponding surface plot).
Bound FAA was dissociated from the PNA-array by immersing the slide in 90° C. water, and the hybridization repeated with FTA using conditions as described above for FAA. The fluorescence image of the FTA hybridization was captured with the 10× objective of a Standard Epifluorescence Microscope with attached 35 mm camera. […]

[2] = test system: surface-bound DNA-ligand 5′-GCCTACGC-3′; assay: Hybridization of fluorescein-labeled DNA-receptor to DNA-ligand synthesized on patterned porous coating (epifluorescence); type: binding; conditions: 10 μM in 6×SSPE, 1 hour at 4° C., wash at 15° C.; 10× objective, 15 seconds exposure
Method: Using the DNA synthesizer to automatically deliver reagents, the DNA-ligand with the sequence 5′-[…]-3′ was synthesized via eight phosphoramidite couplings on the exposed hydroxyl groups beginning with the 3′ end. Following synthesis, the reactor system was separated from the DNA synthesizer, and the phosphate and exocyclic amine protecting groups removed by manually applying 0.05 M potassium carbonate in methanol to the reactor cavity for 2 hours at room temperature. […]
The 6×SSPE solution is a high-salt buffer with a pH of 7.4 comprising 1M NaCl, 66 mM NaH2PO4/Na2HPO4, 6 mM EDTA, and 0.05° Triton X-100-™ The slide was subsequently washed in 6×SSPE at a temperature of 15° C., and mounted on a modified microscope stage attached to a Standard Epifluorescence Microscope The stage contained an aqueous gel within its interior that was chilled to approximately 4° C. prior to image acquisition. The fluorescence image of FTA hybridized to the porous coating was captured using a 35 mm camera attached to the microscope. […]
Following hybridization, the slide was washed in 6×SSPE at a temperature of 15° C. and mounted on the modified stage as described above. The fluorescence image of the FAA hybridization was captured with the 10× objective of a Standard Epifluorescence Microscope with attached 35 mm camera. […]

[3] = molecular target: T1, angiotensin converting enzyme (ACE) (Homo sapiens, UniProt P12821); assay: ACE inhibitory activity, functional assay with substrate FAPGG (absorbance at 328 nm); type: biochemical; conditions: 10 nM ACE, 50 μM FAPGG
Method: Each assay mixture contained 10 nM ACE, 50 μM FAPGG, 50 mM Tris (pH 8.3), 300 mM NaCl, and 20-40 μl of each of the above analogue solutions in a total reaction volume of 50 μl. The above mixture without analogue served as the negative control for inhibitory activity. […] Each reaction was initiated by adding 5 μl of 500 μM FAPGG to 45 μl of the remaining assay components in a 100 μl cuvette. The temporal progress of each reaction was monitored by measuring the absorbance at 328 nm every 15 seconds.
The percent ACE inhibition is expressed as the percent decrease in initial velocity relative to the initial velocity of the negative control. […] Compositions are referenced by R1 and R2 groups as defined in Table XI.

[4] = molecular target: T1, angiotensin converting enzyme (ACE); conditions: as reported by Patchett et al.; read-out: IC50 (binding affinity for ACE); cited from earlier work

T1 sequence (P12821 30-1306, species assumed): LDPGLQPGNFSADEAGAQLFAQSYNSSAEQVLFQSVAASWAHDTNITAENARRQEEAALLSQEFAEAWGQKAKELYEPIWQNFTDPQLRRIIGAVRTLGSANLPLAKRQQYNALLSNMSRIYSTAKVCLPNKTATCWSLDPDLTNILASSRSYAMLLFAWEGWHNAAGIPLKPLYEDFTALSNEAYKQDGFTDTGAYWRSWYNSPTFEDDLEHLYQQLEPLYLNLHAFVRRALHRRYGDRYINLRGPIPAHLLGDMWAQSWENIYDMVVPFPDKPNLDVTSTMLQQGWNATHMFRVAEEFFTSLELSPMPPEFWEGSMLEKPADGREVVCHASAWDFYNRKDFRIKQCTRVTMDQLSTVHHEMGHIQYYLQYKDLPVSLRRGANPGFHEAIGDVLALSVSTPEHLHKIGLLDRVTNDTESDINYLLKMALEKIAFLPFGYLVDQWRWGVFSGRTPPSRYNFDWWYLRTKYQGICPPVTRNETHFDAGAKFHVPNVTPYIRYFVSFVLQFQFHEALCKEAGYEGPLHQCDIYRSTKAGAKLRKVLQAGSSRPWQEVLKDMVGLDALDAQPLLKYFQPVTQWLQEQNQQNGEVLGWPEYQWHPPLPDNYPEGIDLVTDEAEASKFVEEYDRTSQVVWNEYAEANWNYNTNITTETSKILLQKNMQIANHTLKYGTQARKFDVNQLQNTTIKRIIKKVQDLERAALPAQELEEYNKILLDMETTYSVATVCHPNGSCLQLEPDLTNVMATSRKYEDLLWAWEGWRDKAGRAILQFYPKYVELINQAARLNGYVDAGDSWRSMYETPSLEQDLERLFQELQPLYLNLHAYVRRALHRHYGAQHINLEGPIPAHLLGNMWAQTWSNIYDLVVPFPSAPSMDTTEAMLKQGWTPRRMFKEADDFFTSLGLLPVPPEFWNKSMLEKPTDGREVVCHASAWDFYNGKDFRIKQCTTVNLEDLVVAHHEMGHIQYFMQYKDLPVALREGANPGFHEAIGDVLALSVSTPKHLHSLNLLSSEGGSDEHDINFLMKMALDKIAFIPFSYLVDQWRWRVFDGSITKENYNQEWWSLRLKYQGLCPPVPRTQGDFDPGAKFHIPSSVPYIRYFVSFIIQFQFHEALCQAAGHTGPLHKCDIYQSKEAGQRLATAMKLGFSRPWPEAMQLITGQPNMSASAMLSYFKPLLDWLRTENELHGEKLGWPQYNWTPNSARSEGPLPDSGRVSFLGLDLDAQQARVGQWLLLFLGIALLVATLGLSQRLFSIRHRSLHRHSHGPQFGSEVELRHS

percent ACE inhibition (percent decrease in initial velocity relative to the negative control) ([3]; analogue cleaved from one array element of a 1 μm thick porous coat, pH 8.3)	initial velocity ([3]; positive control, 250 nM lisinopril)	Compound	specificity of hybridization to PNA-array [1]	fluorescence image of hybridized DNA-receptor [2]	IC50 [4]
		5′-GCGTAGGC-fluorescein [FTA]	hybridizes specifically to its complementary PNA sequence with little or no signal from other array elements	readily visible	
		5′-GCGAAGGC-fluorescein [FAA]	hybridizes specifically to its complementary PNA sequence with little or no signal from other array elements	equivalent to the images with no receptor	
35%		CC(NC(Cc1ccccc1)C(=O)O)C(=O)N1CCCC1C(=O)O (stereo not shown) [R1a+R2a]			39 nM
	zero	NCCCC[C@H](N[C@@H](CCc1ccccc1)C(=O)O)C(=O)N1CCC[C@H]1C(=O)O [lisinopril]			
